We go through five molecules from US7122359B2, “Active-site engineering of nucleotidylyltransferases and general enzymatic methods for the synthesis of natural and “unnatural” UDP- and TDP-nucleotide sugars” (priority 2000, dated 2006).

Data set [1] has as its target T1, Salmonella enterica LT2 α-D-glucopyranosyl phosphate thymidylyltransferase (Ep) (Salmonella typhimurium, UniProt P26393).
T1 construct: made in house; host or cells: E. coli (E. coli-prfbA-C)
As to the kind of experiment: Ep-catalyzed conversion of α-D-hexopyranosyl phosphates and NTP to NDP-sugars, HPLC (FIG. 2). In kind it is biochemical. The following applies: 5 mM NTP, 10 mM sugar phosphate, 30 min, 37° C. An excerpt:
FIG. 2. E^p-Catalyzed Conversion of Substrates wherein superscript indicators (a)–(h) are as follows: (a) Percent conversion=[Ap/(AP+AT)]×100, where AP is the NDP-sugar product peak integration and AT represents the NTP peak integration. HRMS for all observed products reported in the supporting information. (b) Standard retention times: TDP, […]; TTP, 7.2 mm; UDP, 4.0 mm; UTP, 6.1 mm. (c) Commercially available. (d) Coelutes with commercially available standard. […] (f) Adjusted for the 2:1 α/β-28. (g) In contrast to previously published studies (See Lindquist, L; Kaiser, R.; Reeves, P. R.; Lindberg, A. A., Eur J. Biochem, 1993, 211, 763–770). (h) No products observed.
To evaluate the synthetic utility of purified thymidylyltransferase, Ep, α-D-hexopyranosyl phosphate, Mg^+2 and NTP were incubated at about 37° C. for about 30 min and the extent of product formation determined by HPLC. The results of these assays are illustrated in FIG. 2. Confirmation of product formation was based upon HPLC co-elution with commercially available standards and/or HPLC isolation and high resolution mass spectroscopy of the product. […] A reaction containing 5 mM NTP, 10 mM sugar phosphate and 5.5 mM MgCl2 in a total volume of 50 μL 50 mM potassium phosphate buffer, pH 7.5 at 37° C. was initiated by the addition of 3.52 U Ep (1 U=the amount of protein needed to produce 1 μmol TDP-D-glucose min^−1). The reaction was incubated with slow agitation for 30 min at 37° C., quenched with MeOH (50 μL), centrifuged (5 min, 14,000×g) and the supernatant was stored at −20° C. until analysis by HPLC. Samples (20 μL) were resolved on a Sphereclone 5 u SAX column (250×4.6 mm) fitted with a guard column (30×4.6 mm) using a linear gradient (20–60 mM potassium phosphate buffer, pH 5.0, 1.5 mL min^−1, A275 nm).

The target in data set [2] is T1, Salmonella enterica LT2 α-D-glucopyranosyl phosphate thymidylyltransferase (Ep). The class given is biochemical. The following applies: secondary plot of Lineweaver-Burke plots, assays in triplicate. From the text:
FIG. 10. […] The conditions for the Ep assay conditions and HPLC resolution of reactants and products were similar to those described in Jiang, J., Biggins, J. B. & Thorson, J. S. A General Enzymatic Method for the Synthesis of Natural and “Unnatural” UDP- and TDP-Nucleotide Sugars. J. Am. Chem. Soc. 122, 6803–6804 (2000).
(§1) Assays for product formation and steady state kinetics were accomplished using conditions similar to those described. in Jiang, J., Biggins, J. B. & Thorson, J. S. A General Enzymatic Method for the Synthesis of Natural and “Unnatural” UDP- and TDP-Nucleotide Sugars. J. Am. Chem. Soc. 122, 6803-6804 (2000). For the mutant pool assays, an aliquot which contained an eqimolar ratio of each mutant (60 μg) was utilized.

A further data set addresses T2, wild-type Ep (Salmonella typhimurium, UniProt P26393).
T2 construct: made in house; host or cells: E. coli (E. coli-prfbA-C)
Description: Conversion of sugar phosphates by wild-type enzyme (FIG. 11). The class given is biochemical, Salmonella enterica LT2. As to the method:
(§2) FIG. 11. Percent conversion of sugar phosphates according to the present invention by wild-type and mutant enzymes. The alterations from native substrate (Glc-1-P,1) are highlighted in red. For the mutant pool, mutants Asp41Asn, Glu62Asp, Thr201A and Trp224His were pooled, concentrated and an aliquote constituting 60 μg of each mutant (corresponding to 3.5U Ep) was utilized for the assay.
Percent conversion was determined as described in Jiang, J., Biggins, J. B. & Thorson, J. S. A General Enzymatic Method for the Synthesis of Natural and “Unnatural” UDP- and TDP-Nucleotide Sugars. J. Am. Chem. Soc. 122, 6803–6804 (2000).
as §1

The target of data set [3] is T1, Salmonella enterica LT2 α-D-glucopyranosyl phosphate thymidylyltransferase (Ep). Description: Ep-catalyzed conversion of aminodeoxy/acetamidodeoxy sugar phosphates with inorganic pyrophosphatase, HPLC (FIG. 4). In kind it is biochemical. The following applies: for product formation with dTTP: 2.5 mM NTP, 5.0 mM sugar phosphate, 10 U inorganic pyrophosphatase, 30 min, 37° C. On the procedure: To evaluate the synthetic utility of thymidylyl-transferase, purified Ep, α-D-glucopyranosyl phosphate, Mg^+2, NTP and inorganic pyrophosphatase were incubated at 37° C. for 30 min and the extent of product formation determined by HPLC. The inorganic pyrophosphatase was included to drive the reaction forward. A reaction containing 2.5 mM NTP, 5.0 mM sugar phosphate, 5.5 mM MgCl2 and 10 U inorganic pyrophosphatase in a total volume of 50 μL 50 mM potassium phosphate buffer, pH 7.5 at 37° C. was initiated by the addition of 3.52 U Ep (1 U=the amount of protein needed to produce […] TDP-D-glucose min^−1). The reaction was incubated with slow agitation for 30 min at 37° C., quenched with MeOH (50 μL), centrifuged (5 min, 14,000×g) and the supernatant was stored at −20° C. until analysis by HPLC. Samples (30 μL) were resolved on a Sphereclone 5u SAX column (150×4.6 mm) fitted with a SecurityGuard ™ cartridge (Phenomenex; Torrance, Calif.) using a linear gradient (50–200 mM potassium phosphate buffer, pH 5.0, 1.5 mL min^−1, A275 nm).
The results of these assays are illustrated in FIG. 4. For each assay, confirmation of product formation was based upon high resolution mass spectroscopy of HPLC-isolated products and, also in some cases, HPLC co-elution with commercially available standards.
A reaction containing 2.5 mM NTP, 5.0 mM sugar phosphate, 5.5 mM MgCl2 and 10 U inorganic pyrophosphatase in a total volume of 50 μL 50 mM potassium phosphate buffer, pH 7.5 at 37° C. was initiated by the addition of 3.52 U Ep (1 U=the amount of protein needed to produce 1 μmol TDP-α-D-glucose min^−1) The reaction was incubated with slow agitation for 30 min at 37° C., quenched with MeOH (50 μL), centrifuged (5 min, 14,000×g) and the supernatant was stored at −20° C. until analysis by HPLC. Samples (30 μL) were resolved on a Sphereclone 5u SAX column (250×4.6 mm) fitted with a guard column (30×4.6 mm) using a linear gradient (50–200 mM potassium phosphate buffer, pH 5.0, 1.5 mL min^−1, A275 nm).

Another data set deals with T3, Ep Trp224His mutant (Salmonella typhimurium, UniProt P26393, W224H).
T3 construct: made in house
Description: Individual mutant analysis: Trp224His. The class given is biochemical, Salmonella enterica LT2. The following applies: deconvolution of the mutant pool.
Excerpt: (§3) Thr102Ala, on the other hand, was responsible for the 2-fold increase in the conversion of (108). […] Yet, cumulatively, this small set of directed mutants was able to successfully turn over three of four targeted “unnatural” substrates. […] This Ep variant will serve as an excellent foundation for second generation double mutants.
as §1

In data set [4] the test system is mutant pool (Asp41Asn, Glu62Asp, Thr201A and Trp224His Ep mutants). As to the kind of experiment: Conversion of sugar phosphates by pooled Ep mutants (FIG. 11). In kind it is biochemical, Salmonella enterica LT2. The settings on record: 60 μg of each mutant. On the procedure:
as §2
As a rapid means to assay the entire pool of the four newly constructed mutants, the mutants were combined and the mixture directly tested for ability to convert compounds (2), (108), (89), (102), (38), and (127). […] Those substrates turned over include […] and (127), the two sugar phosphates not accepted or poorly accepted by wild-type Ep.
as §1

For the next data set, the target named is T4, Ep Thr102Ala mutant (Salmonella typhimurium, UniProt P26393, T201A).
T4 construct: made in house
Description: Individual mutant analysis: Thr102Ala. The class given is biochemical, Salmonella enterica LT2. The following applies: over wild-type Ep.
Excerpt: as §3, §1

Data set [5] is described as follows: Specific activity of purified Ep (1 U = protein needed to produce 1 μmol TDP-D-glucose min^−1). The class given is biochemical, Salmonella enterica LT2. The settings on record: purified to near homogeneity. An excerpt:
Ep is encoded by rmlA, which was previously known as rfbA (Reeves et al. Trends Microbiol. 1996, 4, 495–502). The rmlA-encoded Ep was overexpressed in E. coli to provide the desired Ep as >5% of the total soluble protein. The corresponding Ep was purified to near homogeniety with a specific activity of 110 U mg^−1, a 2-fold improvement over the previously reported values. (See Lindquist, L.; Kaiser, R.; Reeves, P. R.; Lindberg, A. A. Eur. J. Biochem., 1993, 211, 763–770.) An (NH4)2SO4 precipitate of E. coli-prfbA-C crude extracts was dialyzed against buffer B (20 mM Tris.HCl, 1 mM EDTA, pH 7.5) The dialysate was resolved by anion exchange (DE52, 3×15 cm, 50 mL buffer B wash followed by a linear gradient of 0–500 mM NaCl, 1.0 mL min^−1) and the Ep fractions combined, concentrated and further resolved by FPLC gel filtration (S-200, 2×70 cm, 50 mM Tris.HCl, 200 mM NaCl, pH 7.5). The purified Ep was stored in aliquots (−80° C.) until used.
To evaluate the synthetic utility of purified thymidylyltransferase, Ep, α-D-hexopyranosyl phosphate, Mg^+2 and NTP were incubated at about 37° C. for about 30 min and the extent of product formation determined by HPLC. The results of these assays are illustrated in FIG. 2. Confirmation of product formation was based upon HPLC co-elution with commercially available standards and/or HPLC isolation and high resolution mass spectroscopy of the product. […]

Consider `O=P(O)(O)O[C@H]1O[C@H](CO)[C@@H](O)[C@H](O)[C@H]1O` [compound 2, α-D-glucopyranosyl phosphate], for which the “activity as Ep substrate with TTP” value in data set [1] is “prefers”. Further, in data set [2], the Km was 300 ± 100 µM and the Vmax came out at 0.03 ± 0.02 mM/min.

Consider `CC(=O)NC[C@H]1O[C@H](OP(=O)([O-])[O-])[C@H](O)[C@@H](O)[C@@H]1O.[Na+].[Na+]` [compound 86, Disodium-(6-acetamido-6-deoxy-α-D-glucopyranosyl) Phosphate], for which the “acceptance / conversion by wild-type Ep” value on wild-type Ep was “not well-accepted”. In addition, in data set [3], the “product formation with dTTP” value is on record as “less activity”. The “increase of product formation with UTP in comparison to dTTP” value in data set [3] (FIG. 4) stood at 8 fold. The “conversion by Trp224His mutant” value at Ep Trp224His mutant is reported as “responsible for converting”. Also, in data set [4], the “turnover by the mutant pool” value was “turned over”.

Regarding `CC(=O)N[C@H]1[C@@H](OP(=O)(O)O)O[C@H](CO)[C@@H](O)[C@@H]1O` [compound 108, 2-acetamido-2-deoxy-α-D-glucopyranosyl phosphate, reference compound], on wild-type Ep, the “acceptance / conversion by wild-type Ep” value is “poor conversion”. Besides, the “product formation with dTTP” value in data set [3] is recorded as “well-tolerated”. Moreover, on Ep Thr102Ala mutant, the “increase in conversion by Thr102Ala mutant” value is given as 2 fold.

On to `O=C(O)[C@H]1O[C@H](OP(=O)(O)O)[C@H](O)[C@@H](O)[C@@H]1O` [compound 127, α-D-glucopyranuronic acid 1-(dihydrogen phosphate)], for which, at wild-type Ep, the “acceptance / conversion by wild-type Ep” value is “not accepted”. In addition, the “conversion by Trp224His mutant” value at Ep Trp224His mutant is on record as “responsible for converting”. Also, the “turnover by the mutant pool” value in data set [4] is reported as “turned over”.

In data set [5], “Ep: Salmonella enterica LT2 rmlA-encoded α-D-glucopyranosyl phosphate thymidylyltransferase, overexpressed in E. coli and purified” registered a specific activity of 110 U mg^−1.
